Laboratory results taken from patent US20210045385A1, “PYRIDAZINONE-SUBSTITUTED KETOXIMES AS HERBICIDES” (FMC Corporation, priority 2018, published 2021).

Columns and labels:
Type in all cases: in vivo
rice (Oryza sativa) = assay: Test B flooded paddy test, visual plant response rating; conditions: 250 g ai/ha, Flood, applied to paddy water, 2-leaf stage, evaluated after 13 to 15 days
In short: (§1)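 2-leaf plants; pots flooded 3 cm over soil surface; compound dosed straight into the floodwater; depth kept constant; greenhouse 13–15 d; visual rating vs. untreated controls.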

[1] = system: sedge, umbrella (small-flower umbrella sedge, Cyperus difformis); assay: as above; conditions: 250 g ai/ha, Flood, applied to paddy water, 2-leaf stage, evaluated after 13 to 15 days
In short: as §1

[2] = system: ducksalad (Heteranhera limosa); assay: as above; conditions: 250 g ai/ha, Flood, applied to paddy water, 2-leaf stage, evaluated after 13 to 15 days
In short: as §1

[3] = system: barnyardgrass (Echinochloa crus-galli); assay: as above; conditions: 250 g ai/ha, Flood, applied to paddy water, 2-leaf stage, evaluated after 13 to 15 days
In short: as §1

[4] = system: ragweed (common ragweed, Ambrosia elatior); assay: Test A postemergence, visual plant response rating; conditions: for Ragweed plant response rating (0 to 100 scale): 500 g ai/ha, postemergence, 0 is no effect, 100 is complete control; for Ragweed plant response rating: Postemergence, 125 g ai/ha, 0 to 100 scale (0 no effect, 100 complete control)
In short: (§2)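 Compared with untreated controls, treated plants received a visual injury score on a 0–100 scale around 10 days after application. The compound, in a non-phytotoxic solvent with surfactant, was given as a preemergence soil spray or postemergence at the one- to two-leaf stage.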

[5] = system: Italian ryegrass (Lolium multiflorum); assay: Test A postemergence, visual plant response rating; conditions: for Ryegrass, Italian plant response rating (0 to 100 scale): 500 g ai/ha, postemergence, 0 is no effect, 100 is complete control; for Ryegrass, Italian plant response rating: Postemergence, 125 g ai/ha, 0 to 100 scale (0 no effect, 100 complete control)
In short: as §2

[6] = system: wheat (Triticum aestivum); assay: Test A postemergence, visual plant response rating; conditions: for Wheat plant response rating (0 to 100 scale): 500 g ai/ha, postemergence, 0 is no effect, 100 is complete control; for Wheat plant response rating: Postemergence, 125 g ai/ha, 0 to 100 scale (0 no effect, 100 complete control)
In short: as §2

kochia (Kochia scoparia) [7] = assay: Test A postemergence, visual plant response rating; conditions: for Kochia plant response rating (0 to 100 scale): 500 g ai/ha, postemergence, 0 is no effect, 100 is complete control; for Kochia plant response rating: Postemergence, 125 g ai/ha, 0 to 100 scale (0 no effect, 100 complete control)
In short: as §2

corn (Zea mays) = assay: Test A postemergence, visual plant response rating; conditions: for Corn plant response rating (0 to 100 scale): 500 g ai/ha, postemergence, 0 is no effect, 100 is complete control; for Corn plant response rating: Postemergence, 125 g ai/ha, 0 to 100 scale (0 no effect, 100 complete control)
In short: as §2

[8] = system: foxtail, giant (giant foxtail, Setaria faberii); assay: Test A postemergence, visual plant response rating; conditions: for Foxtail, Giant plant response rating (0 to 100 scale): 500 g ai/ha, postemergence, 0 is no effect, 100 is complete control; for Foxtail, Giant plant response rating: Postemergence, 125 g ai/ha, 0 to 100 scale (0 no effect, 100 complete control)
In short: as §2

[9] = system: pigweed (Amaranthus retroflexus); assay: Test A postemergence, visual plant response rating; conditions: for Pigweed plant response rating (0 to 100 scale): 500 g ai/ha, postemergence, 0 is no effect, 100 is complete control; for Pigweed plant response rating: Postemergence, 125 g ai/ha, 0 to 100 scale (0 no effect, 100 complete control)
In short: as §2

[10] = system: galium (catchweed bedstraw, Galium aparine); assay: Test A postemergence, visual plant response rating; conditions: for Galium plant response rating (0 to 100 scale): 500 g ai/ha, postemergence, 0 is no effect, 100 is complete control; for Galium plant response rating: Postemergence, 125 g ai/ha, 0 to 100 scale (0 no effect, 100 complete control)
In short: as §2

[11] = system: barnyardgrass (Echinochloa crus-galli); assay: Test A postemergence, visual plant response rating; conditions: for Barnyardgrass plant response rating (0 to 100 scale): 500 g ai/ha, postemergence, 0 is no effect, 100 is complete control; for Barnyardgrass plant response rating: Postemergence, 125 g ai/ha, 0 to 100 scale (0 no effect, 100 complete control)
In short: as §2

[12] = system: blackgrass (Alopecurus myosuroides); assay: Test A postemergence, visual plant response rating; conditions: for Blackgrass plant response rating (0 to 100 scale): 500 g ai/ha, postemergence, 0 is no effect, 100 is complete control; for Blackgrass plant response rating: Postemergence, 125 g ai/ha, 0 to 100 scale (0 no effect, 100 complete control)
In short: as §2

[13] = system: ragweed (common ragweed, Ambrosia elatior); assay: Test A preemergence, visual plant response rating; conditions: for Ragweed plant response rating: 125 g ai/ha, preemergence, 0 to 100 scale, 0 no effect, 100 complete control; for Ragweed plant response rating (0 to 100 scale): 500 g ai/ha Preemergence, approx. 10 days
In short: as §2

[14] = system: Italian ryegrass (Lolium multiflorum); assay: Test A preemergence, visual plant response rating; conditions: for Ryegrass, Italian plant response rating: 125 g ai/ha, preemergence, 0 to 100 scale, 0 no effect, 100 complete control; for Ryegrass, Italian plant response rating (0 to 100 scale): 500 g ai/ha Preemergence, approx. 10 days
In short: as §2

kochia (Kochia scoparia) [15] = assay: Test A preemergence, visual plant response rating; conditions: for Kochia plant response rating: 125 g ai/ha, preemergence, 0 to 100 scale, 0 no effect, 100 complete control; for Kochia plant response rating (0 to 100 scale): 500 g ai/ha Preemergence, approx. 10 days
In short: as §2

[16] = system: foxtail, giant (giant foxtail, Setaria faberii); assay: Test A preemergence, visual plant response rating; conditions: for Foxtail, Giant plant response rating: 125 g ai/ha, preemergence, 0 to 100 scale, 0 no effect, 100 complete control; for Foxtail, Giant plant response rating (0 to 100 scale): 500 g ai/ha Preemergence, approx. 10 days
In short: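 Ratings use a 0–100 visual scale (100 = complete control) against untreated controls, scored about 10 days after greenhouse treatment. Test chemicals were formulated in surfactant-containing non-phytotoxic solvent and applied either as soil spray after planting (preemergence) or onto one- to two-leaf, 2–10 cm plants (postemergence).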

[17] = system: pigweed (Amaranthus retroflexus); assay: Test A preemergence, visual plant response rating; conditions: for Pigweed plant response rating: 125 g ai/ha, preemergence, 0 to 100 scale, 0 no effect, 100 complete control; for Pigweed plant response rating (0 to 100 scale): 500 g ai/ha Preemergence, approx. 10 days
In short: as §2

[18] = system: barnyardgrass (Echinochloa crus-galli); assay: Test A preemergence, visual plant response rating; conditions: for Barnyardgrass plant response rating: 125 g ai/ha, preemergence, 0 to 100 scale, 0 no effect, 100 complete control; for Barnyardgrass plant response rating (0 to 100 scale): 500 g ai/ha Preemergence, approx. 10 days
In short: as §2

| Compound | Plant response rating, Rice (0 to 100 scale, 0 is no effect, 100 is complete control) (rice (Oryza sativa)) | Plant response rating, Sedge, Umbrella (0 to 100 scale, 0 is no effect, 100 is complete control) [1] | Plant response rating, Ducksalad (0 to 100 scale, 0 is no effect, 100 is complete control) [2] | Plant response rating, Barnyardgrass (0 to 100 scale, 0 is no effect, 100 is complete control) [3] | Ragweed plant response rating (0 to 100 scale) [4] | Ragweed plant response rating [4] | Ryegrass, Italian plant response rating (0 to 100 scale) [5] | Ryegrass, Italian plant response rating [5] | Wheat plant response rating (0 to 100 scale) [6] | Wheat plant response rating [6] | Kochia plant response rating (0 to 100 scale) (kochia (Kochia scoparia) [7]) | Kochia plant response rating (kochia (Kochia scoparia) [7]) | Corn plant response rating (0 to 100 scale) (corn (Zea mays)) | Corn plant response rating (corn (Zea mays)) | Foxtail, Giant plant response rating (0 to 100 scale) [8] | Foxtail, Giant plant response rating [8] | Pigweed plant response rating (0 to 100 scale) [9] | Pigweed plant response rating [9] | Galium plant response rating (0 to 100 scale) [10] | Galium plant response rating [10] | further results |
| --- | --- | --- | --- | --- | --- | --- | --- | --- | --- | --- | --- | --- | --- | --- | --- | --- | --- | --- | --- | --- | --- |
| C#CCO/N=C(/c1c(O)c(C)nn(C)c1=O)c1cc(Br)cc2ccccc12 [Compound 112, 4-[(E)-(3-bromo-1-naphthalenyl)[(2-propyn-1-yloxy)imino]methyl]-5-hydroxy-2,6-dimethyl-3(2H)-pyridazinone] | 0 | 60 | 60 | 55 | 100 | 100 | 100 | 90 | 70 | 50 | 90 | 70 | 90 | 20 | 90 | 90 | 100 | 90 | 100 | 100 | Barnyardgrass plant response rating (0 to 100 scale) [11]: 90; Barnyardgrass plant response rating [11]: 80; Blackgrass plant response rating (0 to 100 scale) [12]: 100; Blackgrass plant response rating [12]: 100; Ragweed plant response rating [13]: 90; Ragweed plant response rating (0 to 100 scale) [13]: 90; Ryegrass, Italian plant response rating [14]: 100; Ryegrass, Italian plant response rating (0 to 100 scale) [14]: 100; Kochia plant response rating (kochia (Kochia scoparia) [15]): 50; Kochia plant response rating (0 to 100 scale) (kochia (Kochia scoparia) [15]): 80; Foxtail, Giant plant response rating [16]: 100; Foxtail, Giant plant response rating (0 to 100 scale) [16]: 100; Pigweed plant response rating [17]: 100; Pigweed plant response rating (0 to 100 scale) [17]: 100; Barnyardgrass plant response rating [18]: 100; Barnyardgrass plant response rating (0 to 100 scale) [18]: 100 |
| CCO/N=C(/c1c(O)c(C)nn(C)c1=O)c1cccc2ccccc12 [Compound 78] | 0 | 0 | 0 | 0 | 90 | 80 | 40 | 30 | 0 | 0 | 70 | 60 | 30 | 20 | 80 | 70 | 90 | 80 | 100 | 90 | Barnyardgrass plant response rating (0 to 100 scale) [11]: 80; Barnyardgrass plant response rating [11]: 40; Blackgrass plant response rating (0 to 100 scale) [12]: 80; Blackgrass plant response rating [12]: 70; Ragweed plant response rating [13]: 90; Ragweed plant response rating (0 to 100 scale) [13]: 90; Ryegrass, Italian plant response rating [14]: 30; Ryegrass, Italian plant response rating (0 to 100 scale) [14]: 50; Kochia plant response rating (kochia (Kochia scoparia) [15]): 10; Kochia plant response rating (0 to 100 scale) (kochia (Kochia scoparia) [15]): 30; Foxtail, Giant plant response rating [16]: 80; Foxtail, Giant plant response rating (0 to 100 scale) [16]: 90; Pigweed plant response rating [17]: 20; Pigweed plant response rating (0 to 100 scale) [17]: 100; Barnyardgrass plant response rating [18]: 80; Barnyardgrass plant response rating (0 to 100 scale) [18]: 80 |
